Laboratory results reported in patent publication US6774139B1, “Dual function microbicides” (Parker Hughes Institute, priority 2000, dated 2004).
Where two headings read alike, the source gives them in different places.

Tests used:
[1] = biological target: T1, purified recombinant HIV-1 RT (Human immunodeficiency virus type 1 group M subtype B, UniProt P03366); experiment: cell-free Quan-T-RT RT inhibition assay (scintillation proximity); type: biochemical; conditions: IC50 [rRT], purified recombinant HIV-1 RT, cell-free
T1 construct: purified recombinant HIV-1 RT
Procedure: Each of the thirty one thiourea compounds was tested for RT inhibitory activity against purified recombinant HIV-1 RT using the cell-free Quan-T-RT system (Amersham Corp., Arlington Heights, Ill.), which utilizes the scintillation proximity assay principle.

human sperm = experiment: sperm immobilizing activity (SIA) by CASA; type: cell-based; conditions: for EC50: read-out: EC50 [SIA]; for effective 100% inhibitory concentration (EC100), sperm motility: FIG. 1, CASA
Procedure: To evaluate the effect of each of the 31 thiourea compounds on human sperm motility and kinematics, highly motile fractions of sperm were prepared from donor semen (n=8) by discontinuous (90-45%) gradient centrifugation using Enhance Plus medium (Conception Technologies, San Diego, Calif.) and the “swim-up” method. The swim-up method was used after density gradient centrifugation, washing, and resuspension of sperm in BWW-3% BSA. Pooled swim-up fraction was washed once prior to spermicidal assay.
All donor semen specimens were obtained after informed consent and in compliance with the guidelines of the Parker Hughes Institute Institutional Review Board. […] The stock solutions of thioureas were prepared in DMSO (100 mM) and diluted in assay medium to yield the desired concentrations (up to 1000 μM). Corresponding volume of DMSO (either 0.5% or 1%) was added to control tubes. After 3 hours of incubation at 37° C., the percentage of motile sperm was evaluated by CASA [53, 62-64]. The percent motilities were compared with sham-treated control suspensions of motile sperm.
For CASA, 5-μl of each sperm suspension was loaded into a 20-μm Microcell slide (Conception Technologies) in a counting chamber at 37° C. At least 5-8 fields per slide were scanned for analysis using a Hamilton Thome Integrated Visual Optical System (IVOS), version 10 instrument (Hamilton Thome Research Inc., Danvers, Mass.). Each field was recorded for 30 seconds. The computer calibrations were set at 30 frames at a frame rate of 30/second.
The sperm kinematics parameters that were determined included numbers of motile (MOT) and progressively (PRG) motile sperm; curvilinear velocity (VCL; a measure of the total distance traveled by a given sperm during the acquisition divided by the time elapsed); average path velocity (VAP; the spatially averaged path that eliminates the wobble of the sperm head), straight line velocity (VSL; the straight-line distance from beginning to end of track divided by time taken), beat cross frequency (BCF; frequency of sperm head crossing sperm average path), the amplitude of lateral head displacement (ALH; the mean width of sperm head oscillation), and the derivatives, straightness (STR=VSL/VAP×100) and linearity (LIN=VSL/VCL×100; departure of sperm track from a straight line). Data from each individual cell track were recorded and analyzed. At least 200 motile sperm were analyzed for each aliquot sampled.

[2] = system: normal human vaginal epithelial cells; experiment: MTT cell viability assay, vaginal epithelial cells; type: cell-based; conditions: read-out: IC50[MTT] vaginal epithelial cells
Procedure: (§1) Briefly, exponential growing vaginal, ectocervical, and endocervical epithelial cells were seeded into 96-well plates at a density of 2×10^4 cells/well and incubated for 24 h at 37° C. prior to drug exposure. On the day of treatment, culture medium was aspirated from the wells and replaced with fresh medium containing serial two-fold drug concentrations ranging from 7.8 μM to 1000 μM. N-9 (IGEPAL CO-630; Rhone Poulenc, Cranbury, N.J.) was diluted in PBS. Triplicate wells were used for each treatment. Culture plates were then incubated for 3 hours before adding 10 μl of MTT solution (5 mg/ml in PBS) to each well. Wells containing only medium and MTT were used as control for each plate. The tetrazolium/formazan reaction was allowed to proceed for 4 hours at 37° C., and then 100 μl of the solubilization buffer (10% sodium dodecyl sulfate in 0.1% HCl) was added to all wells and mixed thoroughly to dissolve the dark blue formazan crystals. After an overnight incubation at 37° C., the OD at 540 nm were measured using a 96-well multiscanner autoreader with the solubilization buffer serving as blank. To translate the OD540 values into the number of live cells in each well, the OD540 values were compared to those of standard OD540-versus-cell number curves generated for each cell line. The percent survival was calculated using the formula: % survival=Live cell number [test]/Live cell number [control]×100. The results were expressed as mean IC50 values for three independent experiments. The IC50 [MTT] was defined as the concentration required for 50% reduction in cell survival.
(§2) Cell viability was measured by the MTT assay.

[3] = system: normal human ectocervical epithelial cells; experiment: MTT cell viability assay, ectocervical epithelial cells; type: cell-based; conditions: read-out: IC50[MTT] ectocervical epithelial cells
Procedure: as §1, §2

HIV-1 strain HTLVIIIB = experiment: p24 antigen production in HIV-1 infected PBMCs; type: cell-based; conditions: Human immunodeficiency virus 1, PBMC
Procedure: The HTLVIIIB strain of HIV-1 was propagated in CCRF-CEM cells and the virus stocks obtained from cell-free supernatants of infected cells were titered using MT-2 cells. Cell-free supernatants were harvested and frozen in 1 ml aliquots at −70° C.
Stock solutions (10 mM) of thiourea compounds were prepared in dimethylsulfoxide (DMSO). Cells were cultured for 7 days in 96-well microtiter plates (100 μl/well; 2×10^6 cells/ml, triplicate wells) in the presence and absence of various concentrations (0.001 μM to 100 μM) of the thioureas. Cells from non-infected controls were handled in the same way except the virus was omitted from the preparation. Aliquots of culture supernatants were removed from the wells on the 7th day after infection for p24 antigen as previously described. The p24 enzyme immunoassay was the unmodified kinetic assay available commercially (Coulter Corporation/Immunotech, Inc., Westbrook, Me.). The assay uses a murine monoclonal antibody (mAb) to the HIV core protein coated onto microwell strips to which the antigen present in the test culture supernatant sample binds. The plates were read on a ELISA reader (Molecular Devices, Sunnyvale, Calif.) at 650 nm and p24 levels, expressed as ng/ml, were calculated against known standards supplied by Coulter/Imrunotech, Inc. Percent viral inhibition was calculated by comparing the p24 values for the test substance-treated infected cells with the p24 values for untreated infected cells (i.e., virus controls). […]

[4] = system: normal human endocervical epithelial cells; experiment: MTT cell viability assay, endocervical epithelial cells; type: cell-based; conditions: read-out: IC50[MTT] endocervical epithelial cells
Procedure: as §1, §2

[5] = partition coefficient n-octanol/water (Pa); type: physicochemical; conditions: UV absorption
Procedure: Partition of the test compounds between n-octanol and water as a measure of their lipophilicity was determined by taking the UV absorption of each compound in n-octanol, water-saturated n- octanol (1:1), and n-octanol-saturated water (1:1). The UV absorption maxima were determined by selecting a wavelength with the maximum absorption peak in the water-saturated octanol layer and the corresponding peak in the octanol-saturated water. Three absorption spectra were obtained for each compound. The partion coefficient (Pa) was calculated as the ratio of the compound concentration present in the lipid phase to the compound concentration present in the aqueous phase.

[6] = motile human sperm, 3 hours at 37° C., CASA
[7] = HIV-1 HTLVIIIB infected human PBMC, p24 antigen on 7th day, read-out: IC50 [p24]
[8] = HIV-1 HTLVIIIB infected human PBMC, values in nM, read-out: IC50[p24]

SMILES	IC50 [1]	EC50 (human sperm; [6])	IC50 ([2]; 3 h exposure, MTT)	IC50 ([3]; 3 h exposure, MTT)	IC50 (HIV-1 strain HTLVIIIB; [7])	IC50 (HIV-1 strain HTLVIIIB; [8])	IC50 ([4]; 3 h exposure, MTT)	Pa, Partition coefficient [5]	effective 100% inhibitory concentration (EC100), sperm motility (human sperm)	IC50 (HIV-1 strain HTLVIIIB; read-out: IC50 [p24])	IC50 (HIV-1 strain HTLVIIIB; read-out: IC50[p24])	EC50 (human sperm; Homo sapiens, Sperm, 3 h)	IC50 ([2]; 3 h)	IC50 ([3]; 3 h)	IC50 ([4]; 3 h)
S=C(NCCc1ccccc1Cl)Nc1ccc(Br)cn1 [HI 253]	700 nM	70 µM	> 1000 µM	> 1000 µM	< 1 nM	< 1 nM	> 1000 µM	1.04							
Fc1ccccc1CCNC(=S)Nc1ccc(Br)cn1 [HI 240]	600 nM	147 µM	> 1000 µM	> 1000 µM	< 1 nM	< 1 nM	> 1000 µM	1.20							
S=C(NCCc1ccccn1)Nc1ccccn1 [HI 207]	390 nM	279 µM	> 1000 µM	> 1000 µM	270 nM		> 1000 µM	2.32							
S=C(NCCC1=CCCCC1)Nc1ccc(Cl)cn1 [HI 445]		57 µM	578 ± 25 µM	692 ± 139 µM			185 ± 21 µM	6.3	1 mM	3 nM	3 nM				
S=C(NCCC1=CCCCC1)Nc1ccc(Br)cn1 [HI 346]	600 nM	42 µM	> 1000 µM	765 ± 400 µM			580 ± 48 µM	8.6	0.25 mM	3 nM	3 nM				
CCCCCCCCCc1ccc(OCCOCCOCCOCCOCCOCCOCCOCCOCCO)cc1 [Compound N-9, nonoxynol-9, reference compound]												81 µM	64 µM	58 µM	32 µM
